For 33 molecules, IC50 results are on record in patent publication US20100227858A1, “TRISUBSTITUTED PYRIMIDINE DERIVATIVES FOR THE TREATMENT OF PROLIFERATIVE DISEASES” (ASTRAZENECA AB, priority 2007, published 2010).

As a reminder, the IC50 is the concentration that inhibits the measured activity by half.

recombinant mTOR, sequence (P42345 1362-2549): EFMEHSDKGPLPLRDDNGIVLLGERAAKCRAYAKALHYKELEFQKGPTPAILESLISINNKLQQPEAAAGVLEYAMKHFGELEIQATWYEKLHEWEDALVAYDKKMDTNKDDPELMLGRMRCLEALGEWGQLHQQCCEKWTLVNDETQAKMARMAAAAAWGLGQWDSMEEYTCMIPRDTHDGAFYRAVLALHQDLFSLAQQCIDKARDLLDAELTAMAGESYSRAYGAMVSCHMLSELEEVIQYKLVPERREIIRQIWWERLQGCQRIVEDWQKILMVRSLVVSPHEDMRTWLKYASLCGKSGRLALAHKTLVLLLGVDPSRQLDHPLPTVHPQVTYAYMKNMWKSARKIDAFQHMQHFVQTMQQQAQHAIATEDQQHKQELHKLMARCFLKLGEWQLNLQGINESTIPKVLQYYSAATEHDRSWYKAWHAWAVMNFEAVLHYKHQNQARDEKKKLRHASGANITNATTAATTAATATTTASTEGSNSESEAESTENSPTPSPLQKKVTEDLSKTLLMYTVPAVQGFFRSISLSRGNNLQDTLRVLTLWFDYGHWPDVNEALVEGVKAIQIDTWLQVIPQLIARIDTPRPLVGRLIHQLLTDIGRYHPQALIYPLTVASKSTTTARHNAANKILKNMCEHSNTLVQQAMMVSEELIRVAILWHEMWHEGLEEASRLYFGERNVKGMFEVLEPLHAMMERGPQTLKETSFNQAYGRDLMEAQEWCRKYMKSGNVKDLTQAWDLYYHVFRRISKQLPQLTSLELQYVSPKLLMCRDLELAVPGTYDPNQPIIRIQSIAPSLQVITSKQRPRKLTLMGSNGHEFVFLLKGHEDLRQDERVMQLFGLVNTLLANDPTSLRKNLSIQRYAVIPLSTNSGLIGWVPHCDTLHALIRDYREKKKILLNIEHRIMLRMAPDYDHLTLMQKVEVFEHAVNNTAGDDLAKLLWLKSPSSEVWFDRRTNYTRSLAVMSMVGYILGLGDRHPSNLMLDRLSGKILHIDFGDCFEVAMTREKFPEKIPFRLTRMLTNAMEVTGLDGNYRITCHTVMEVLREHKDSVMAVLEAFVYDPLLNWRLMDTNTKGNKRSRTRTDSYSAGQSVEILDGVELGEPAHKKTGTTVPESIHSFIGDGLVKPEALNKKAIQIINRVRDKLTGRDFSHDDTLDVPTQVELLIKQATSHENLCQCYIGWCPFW

This assay addresses recombinant mTOR (Homo sapiens, UniProt P42345). The assay is described as follows: In vitro mTOR kinase assay, Test (a)(i) (AlphaScreen). In kind it is biochemical. As to conditions: enzyme assay; values may represent the average of two or more measurements; read-out: Test (a)(i) IC50. The protocol:
(a)(i) In Vitro mTOR Kinase Assay
The HEK293 FLAG-tagged mTOR (1362-2549) stable cell line was routinely maintained at 37° C. with 5% CO2 up to a confluency of 70-90% in Dulbecco's modified Eagle's growth medium (DMEM; Invitrogen Limited, Paisley, UK Catalogue No. 41966-029) containing 10% heat-inactivated foetal calf serum (FCS; Sigma, Poole, Dorset, UK, Catalogue No. F0392), 1% L-glutamine (Gibco, Catalogue No. 25030-024) and 2 mg/ml Geneticin (G418 sulfate; Invitrogen Limited, UK Catalogue No. 10131-027). Following expression in the mammalian HEK293 cell line, expressed protein was purified using the FLAG epitope tag using standard purification techniques.
A 30 μl mixture of recombinant purified mTOR enzyme, 1 μM biotinylated peptide substrate (Biotin-Ahx-[…]NH2; Bachem UK Ltd), ATP (20 μM) and a buffer solution [comprising Tris-HCl pH7.4 buffer (50 mM), EGTA (0.1 mM), bovine serum albumin (0.5 mg/mL), DTT (1.25 mM) and manganese chloride (10 mM)] was agitated at room temperature for 90 minutes.
These assay solutions were incubated for 2 hours at room temperature.
Phosphorylated biotinylated peptide is formed in situ as a result of mTOR mediated phosphorylation. The phosphorylated biotinylated peptide that is associated with AlphaScreen Streptavidin donor beads forms a complex with the p70 S6 Kinase (T389) 1A5 Monoclonal Antibody that is associated with Alphascreen Protein A acceptor beads. […] Accordingly, the presence of mTOR kinase activity results in an assay signal. In the presence of an mTOR kinase inhibitor, signal strength is reduced.
In general terms: In Alpha technology, singlet oxygen from a donor bead excites a nearby acceptor bead.
Regarding `COc1ccc(C(=O)Nc2nc(N3CCOC[C@@H]3C)cc(N3CCOC[C@@H]3C)n2)cc1` [Example 1, N-[4,6-Bis[(3S)-3-methylmorpholin-4-yl]pyrimidin-2-yl]-4-methoxy-benzamide], the IC50 came to 4650 nM. The value for `COc1ccc(C(=O)Nc2cc(N3CCOC[C@@H]3C)nc(N3CCOC[C@@H]3C)n2)cc1C(F)(F)F` [Example 2, N-[2,6-Bis[(3S)-3-methylmorpholin-4-yl]pyrimidin-4-yl]-4-methoxy-3-(trifluoromethyl)benzamide] was 236 nM; that for `COc1cccc(C(=O)Nc2cc(N3CCOC[C@@H]3C)nc(N3CCOC[C@@H]3C)n2)c1` [Example 3, N-[2,6-Bis[(3S)-3-methylmorpholin-4-yl]pyrimidin-4-yl]-3-methoxy-benzamide] was 234 nM. The value for `COc1ccc(C(=O)Nc2nc(N3CCOC[C@@H]3C)cc(N3CCOC[C@@H]3C)n2)cc1C(F)(F)F` [Example 4, N-[4,6-Bis[(3S)-3-methylmorpholin-4-yl]pyrimidin-2-yl]-4-methoxy-3-(trifluoromethyl)benzamide] was 442 nM; that for `COc1cccc(C(=O)Nc2nc(N3CCOC[C@@H]3C)cc(N3CCOC[C@@H]3C)n2)c1` [Example 5, N-[4,6-Bis[(3S)-3-methylmorpholin-4-yl]pyrimidin-2-yl]-3-methoxy-benzamide] was 364 nM.

Turning to `COc1ccc(C(=O)Nc2nc(N3CCOC[C@@H]3C)cc(N3CCOC[C@@H]3C)n2)cn1` [Example 6, N-[4,6-Bis[(3S)-3-methylmorpholin-4-yl]pyrimidin-2-yl]-6-methoxy-pyridine-3-carboxamide], the IC50 came out at 2680 nM. The value for `COc1cc(C(=O)Nc2cc(N3CCOC[C@@H]3C)nc(N3CCOC[C@@H]3C)n2)ccn1` [Example 7, N-[2,6-Bis[(3S)-3-methylmorpholin-4-yl]pyrimidin-4-yl]-2-methoxy-pyridine-4-carboxamide] was 2840 nM; that for `CC(=O)Nc1ccc(C(=O)Nc2cc(N3CCOC[C@@H]3C)nc(N3CCOC[C@@H]3C)n2)cn1` [Example 8, 6-Acetamido-N-[2,6-bis[(3S)-3-methylmorpholin-4-yl]pyrimidin-4-yl]pyridine-3-carboxamide] was 1780 nM. Then `COc1ccccc1C(=O)Nc1cc(N2CCOC[C@@H]2C)nc(N2CCOC[C@@H]2C)n1` [Example 9, N-[2,6-Bis[(3S)-3-methylmorpholin-4-yl]pyrimidin-4-yl]-2-methoxy-benzamide], with 894 nM. The value for `CC(=O)Nc1cc(C(=O)Nc2cc(N3CCOC[C@@H]3C)nc(N3CCOC[C@@H]3C)n2)ccn1` [Example 10, 2-Acetamido-N-[2,6-bis[(3S)-3-methylmorpholin-4-yl]pyrimidin-4-yl]pyridine-4-carboxamide] was 26400 nM; that for `COc1ccc(C(=O)Nc2cc(N3CCOC[C@@H]3C)nc(N3CCOC[C@@H]3C)n2)cc1F` [Example 11, N-[2,6-Bis[(3S)-3-methylmorpholin-4-yl]pyrimidin-4-yl]-3-fluoro-4-methoxy-benzamide] was 3580 nM. Regarding `COc1cc(C(=O)Nc2nc(N3CCOC[C@@H]3C)cc(N3CCOC[C@@H]3C)n2)ccn1` [Example 12, N-[4,6-Bis[(3S)-3-methylmorpholin-4-yl]pyrimidin-2-yl]-2-methoxy-pyridine-4-carboxamide], the concentration for half-maximal inhibition (IC50) turned out to be 4000 nM. The value for `CC(=O)Nc1ccc(C(=O)Nc2nc(N3CCOC[C@@H]3C)cc(N3CCOC[C@@H]3C)n2)cn1` [Example 13, 6-Acetamido-N-[4,6-bis[(3S)-3-methylmorpholin-4-yl]pyrimidin-2-yl]pyridine-3-carboxamide] was 1580 nM; that for `COc1ccccc1C(=O)Nc1nc(N2CCOC[C@@H]2C)cc(N2CCOC[C@@H]2C)n1` [Example 14, N-[4,6-Bis[(3S)-3-methylmorpholin-4-yl]pyrimidin-2-yl]-2-methoxy-benzamide] was 886 nM; that for `CC(=O)Nc1cc(C(=O)Nc2nc(N3CCOC[C@@H]3C)cc(N3CCOC[C@@H]3C)n2)ccn1` [Example 15, 2-Acetamido-N-[4,6-bis[(3S)-3-methylmorpholin-4-yl]pyrimidin-2-yl]pyridine-4-carboxamide] was 9550 nM. Then `COc1ccc(C(=O)Nc2nc(N3CCOC[C@@H]3C)cc(N3CCOC[C@@H]3C)n2)cc1F` [Example 16, N-[4,6-Bis[(3S)-3-methylmorpholin-4-yl]pyrimidin-2-yl]-3-fluoro-4-methoxy-benzamide], with 2470 nM; and `C[C@H]1COCCN1c1cc(NC(=O)c2ccc(NC(=O)Nc3ccccc3)cc2)nc(N2CCOC[C@@H]2C)n1` [Example 17, N-[2,6-Bis[(3S)-3-methylmorpholin-4-yl]pyrimidin-4-yl]-4-(phenylcarbamoylamino)benzamide], with 9390 nM. The value for `C[C@H]1COCCN1c1cc(N2CCOC[C@@H]2C)nc(NC(=O)c2ccc(NC(=O)Nc3ccccc3)cc2)n1` [Example 18, N-[4,6-Bis[(3S)-3-methylmorpholin-4-yl]pyrimidin-2-yl]-4-(phenylcarbamoylamino)benzamide] was 1120 nM; that for `COc1ccc(C(=O)Nc2cc(N3CCOC[C@@H]3C)nc(N3CCOC[C@@H]3C)n2)cc1` [Example 19, N-[2,6-Bis[(3S)-3-methylmorpholin-4-yl]pyrimidin-4-yl]-4-methoxy-benzamide] was 181 nM; that for `C[C@@H]1CN(c2nc(CS(C)(=O)=O)cc(N3CCOC[C@@H]3C)n2)C[C@H](C)O1` [Example 20, 2-[(2R,6S)-2,6-Dimethylmorpholin-4-yl]-4-[(3S)-3-methylmorpholin-4-yl]-6-(methylsulfonylmethyl)pyrimidine] was 1650 nM.

As for `C[C@H]1COCCN1c1cc(CS(C)(=O)=O)nc(N2CCCC(O)C2)n1` (stereo partly drawn) [Example 21, 1-[4-[(3S)-3-Methylmorpholin-4-yl]-6-(methylsulfonylmethyl)pyrimidin-2-yl]piperidin-3-ol], the 50% inhibitory concentration (IC50) was 2300 nM.

As to `C[C@H]1COCCN1c1cc(CS(C)(=O)=O)nc(N2CCOCC2)n1` [Example 22, 4-[(3S)-3-methylmorpholin-4-yl]-6-(methylsulfonylmethyl)-2-morpholin-4-yl-pyrimidine], the half-inhibitory concentration (IC50) was determined as 1700 nM.

Turning to `C[C@H]1COCCN1c1cc(CS(C)(=O)=O)nc(-c2cnc3[nH]ccc3c2)n1` [Example 23, 3-[4-[(3S)-3-Methylmorpholin-4-yl]-6-(methylsulfonylmethyl)pyrimidin-2-yl]-5,7-diazabicyclo[4.3.0]nona-1,3,5,8-tetraene], the IC50 was 37.7 nM. `C[C@H]1COCCN1c1cc(CS(C)(=O)=O)nc(-c2ccc3[nH]ccc3c2)n1` [Example 24]: the half-inhibitory concentration (IC50) came out at 303 nM. Regarding `C[C@@H]1COCCN1c1cc(CS(C)(=O)=O)nc(-c2ccc3[nH]ccc3c2)n1` [Example 25, 5-[4-[(3R)-3-methylmorpholin-4-yl]-6-(methylsulfonylmethyl)pyrimidin-2-yl]-1H-indole], the IC50 came out at 385 nM. On to `CCC(C)S(=O)(=O)Cc1cc(N2CCOC[C@@H]2C)nc(-c2ccc3[nH]ccc3c2)n1` (stereo partly drawn) [Example 26, 5-[4-(Butan-2-ylsulfonylmethyl)-6-[(3S)-3-methylmorpholin-4-yl]pyrimidin-2-yl]-1H-indole], for which the concentration for half-maximal inhibition (IC50) was 1380 nM. Then `CCC(C)[S+]([O-])Cc1cc(N2CCOC[C@H]2C)nc(-c2ccc3[nH]ccc3c2)n1` (stereo partly drawn) [Example 27, 5-[4-(butan-2-ylsulfinylmethyl)-6-[(3R)-3-methylmorpholin-4-yl]pyrimidin-2-yl]-1H-indole], with 1170 nM. Then `CC(C)S(=O)(=O)Cc1cc(N2CCOC[C@H]2C)nc(-c2ccc3[nH]ccc3c2)n1` [Example 28, 5-[4-[(3R)-3-methylmorphlin-4-yl]-6-(propan-2-ylsulfonylmethyl)pyrimidin-2-yl]-1H-indole], with 626 nM. Then `CCS(=O)(=O)Cc1cc(N2CCOC[C@H]2C)nc(-c2ccc3[nH]ccc3c2)n1` [Example 29, 5-[4-(ethylsulfonylmethyl)-6-[(3R)-3-methylmorpholin-4-yl]pyrimidin-2-yl]-1H-indole], with 351 nM. Consider `C[C@H]1COCCN1c1cc(CS(C)(=O)=O)nc(Nc2cc[nH]n2)n1` [Example 30, 4-[(3S)-3-Methylmorpholin-4-yl]-6-(methylsulfonylmethyl)-N-(1H-pyrazol-3-yl)pyrimidin-2-amine], for which the 50% inhibitory concentration (IC50) was found to be 897 nM.

Turning to `C[C@H]1COCCN1c1cc(CS(C)(=O)=O)nc(-c2ccc(-c3cn[nH]c3)cc2)n1` [Example 31, 4-[(3S)-3-Methylmorpholin-4-yl]-6-(methylsulfonylmethyl)-2-[4-(1H-pyrazol-4-yl)phenyl]pyrimidine], the 50% inhibitory concentration (IC50) worked out at 990 nM.

On to `C[C@H]1COCCN1c1cc(CS(C)(=O)=O)nc(-c2cccc(-c3cn[nH]c3)c2)n1` [Example 32, 4-[(3S)-3-Methylmorpholin-4-yl]-6-(methylsulfonylmethyl)-2-[3-(1H-pyrazol-4-yl)phenyl]pyrimidine], for which the IC50 came to 437 nM.

In the case of `C[C@H]1COCCN1c1cc(CS(C)(=O)=O)nc(-c2ccc3[nH]cc(C(N)=O)c3c2)n1` [Example 33, 5-[4-[(3S)-3-Methylmorpholin-4-yl]-6-(methylsulfonylmethyl)pyrimidin-2-yl]-1H-indole-3-carboxamide], the IC50 was found to be 154 nM.
